Results published in patent US9512111B2, “N-sulfonylated tetrahydroquinolines and related bicyclic compounds for inhibition of RORγ activity and the treatment of disease” (Lycera Corporation, priority 2010, dated 2016).
pIC50: −log10 of the molar value.

Biological target: T1, RORγ-LBD (Homo sapiens, UniProt P51449)
T1 construct: HIS-tagged RORγ-LBD was recombinantly expressed in SF9 cells; made in house; host or cells: SF9 cells (baculovirus); unpurified lysate
T1 sequence (P51449 269-508 limits assumed): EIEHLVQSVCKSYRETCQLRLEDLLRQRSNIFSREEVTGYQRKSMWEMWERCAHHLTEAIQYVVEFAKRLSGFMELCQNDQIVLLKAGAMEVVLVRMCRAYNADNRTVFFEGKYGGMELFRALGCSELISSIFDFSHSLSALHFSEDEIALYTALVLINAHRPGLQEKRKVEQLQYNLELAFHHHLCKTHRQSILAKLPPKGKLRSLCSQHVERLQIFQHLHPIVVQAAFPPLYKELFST
Assay: RORγ-Ligand Binding Domain TR-FRET Assay
Format: biochemical
Protocol: HIS-tagged RORγ-LBD was recombinantly expressed in SF9 cells using a baculovirus expression system. The protein was not purified. Cells were lysed and the lysate was used as a source for RORγ-LBD for the assay. A 1:80 dilution of RORγ-LBD lysate in assay buffer (25 mM HEPES pH 7.0, 100 mM NaCl, 0.01% Tween, 0.1% BSA) was prepared and 5 μL was added to each well (RORγ-LBD final concentration ˜10 nM). Control wells received lysate from SF9 cells not expressing RORγ-LBD.
Compounds to be tested were diluted to 100× final test concentration in DMSO and further diluted to 4× final test concentration using assay buffer to provide the test compound mixture. An aliquot (5 μL) of the test compound mixture was added to each well.
A 4× stock of biotinylated-LXXLL peptide from SRC1-2 (Biotin-[…]) was prepared in assay buffer and a 5 μL aliquot added to each well (450 nM final concentration). A 4× solution of europium tagged anti-HIS antibody (2 nM final concentration) and APC conjugated streptavidin (60 nM final concentration) were prepared and a 5 μL aliquot added to each well.
The final assay mixture was incubated for 4 hours to overnight, and the fluorescence signal was measured on an Envision plate reader: (Excitation filter=340 nm; APC emission=665 nm; Europium emission=615 nm; dichroic mirror=D400/D630; delay time=100 μs, integration time=200 μs).
IC50 values for test compounds were calculated from the quotient of the fluorescence signal at 665 nm divided by the fluorescence signal at 615 nm using GraphPad Prism software.

SMILES | pIC50 (benzoxazines, Table 9) | pIC50 (Table 8, indazoles)
CCCNCC1CN(S(=O)(=O)c2ccc(F)cc2)c2cc(NC(=O)c3c(F)cccc3Cl)ccc2O1 (stereo not drawn) [VI-33] | > 4.82 | 
O=C(Nc1ccc2cnn(S(=O)(=O)Cc3ccc(F)cc3)c2c1)c1c(F)cccc1Cl [Compound V-160] |  | > 4.82
Cc1ncc(CC(=O)Nc2ccc3cnn(S(=O)(=O)c4cccc(Cl)c4)c3c2)s1 [Compound V-6] |  | > 4.82
COc1cccc(S(=O)(=O)n2ncc3ccc(NC(=O)c4c(Cl)cccc4Cl)cc32)c1 [Compound V-73] |  | > 4.82
Cc1ccc(S(=O)(=O)n2ncc3ccc(NC(=O)c4c(F)cccc4Cl)cc32)cc1Cl [Compound V-127] |  | > 4.82
Cc1cccc(Cl)c1C(=O)Nc1ccc2c(c1)N(S(=O)(=O)c1ccc(F)cc1)C[C@H](C)O2 [VI-21] | > 4.82 | 
Cc1cccc(F)c1C(=O)Nc1ccc2cnn(S(=O)(=O)c3cccc(C(F)(F)F)c3)c2c1 [Compound V-1] |  | > 4.82
CCCc1ccc(S(=O)(=O)n2ncc3ccc(NC(=O)c4c(F)cccc4Cl)cc32)cc1 [Compound V-115] |  | > 4.82
Cc1nn(C(F)F)cc1S(=O)(=O)n1ncc2ccc(NC(=O)c3c(Cl)cccc3Cl)cc21 [Compound V-65] |  | > 4.82
Cc1cccc(S(=O)(=O)n2ncc3ccc(NC(=O)c4c(Cl)cccc4Cl)cc32)c1 [Compound V-70] |  | > 4.82
C=Cc1nn(S(=O)(=O)c2cccc(C(F)(F)F)c2)c2cc(NC(=O)c3c(F)cccc3Cl)ccc12 [Compound 9, 2-Chloro-6-fluoro-N-[1-(3-trifluoromethylbenzenesulfonyl)-3-vinyl-1H-indazol-6-yl]benzamide] |  | > 4.82
O=C(Nc1ccc2cnn(S(=O)(=O)c3ccc(F)c(C(F)(F)F)c3)c2c1)c1c(F)cccc1C(F)(F)F [Compound V-44] |  | > 4.82
O=C(Nc1ccc2cnn(S(=O)(=O)c3cc(F)cc(F)c3)c2c1)c1c(F)cccc1Cl [Compound V-114] |  | > 4.82
O=C(Cc1ccc(F)cc1)Nc1ccc2c(c1)N(S(=O)(=O)c1ccc(Cl)cc1)C[C@@H](CO)O2 [VI-53] | > 4.82 | 
C[C@H](O)[C@H]1CN(S(=O)(=O)c2ccc(F)cc2)c2cc(NC(=O)c3c(Cl)cccc3C(F)(F)F)ccc2O1 [VI-16] | > 4.82 | 
N#Cc1cccc(S(=O)(=O)N2C[C@H](CO)Oc3ccc(NC(=O)Cc4ccc(Cl)cc4)cc32)c1 [VI-61] | > 4.82 | 
Cc1nn(C(F)F)cc1S(=O)(=O)n1ncc2ccc(NC(=O)Cc3ccc(F)cc3)cc21 [Compound V-22] |  | > 4.82
COCC1CN(S(=O)(=O)c2ccc(F)c(F)c2)c2cc(NC(=O)Cc3ccc(Cl)cc3)ccc2O1 (stereo not drawn) [VI-69] | < 4.82 | 
COc1ccc(Br)cc1S(=O)(=O)n1ncc2ccc(NC(=O)c3c(F)cccc3Cl)cc21 [Compound V-83] |  | > 4.82
Cc1nn(C(F)F)cc1S(=O)(=O)n1ncc2ccc(NC(=O)Cc3ccc(F)c(F)c3)cc21 [Compound V-17] |  | > 4.82
Cc1cccc(S(=O)(=O)n2nc(-c3ccc(C(=O)O)cc3)c3ccc(NC(=O)c4c(F)cccc4Cl)cc32)c1 [Compound V-10] |  | > 4.82
O=C(Nc1ccc2cnn(S(=O)(=O)c3ccc(F)c(C(F)(F)F)c3)c2c1)c1c(F)cccc1Cl [Compound V-81] |  | > 4.82
O=C(Nc1ccc2c(CO)nn(S(=O)(=O)c3cccc(C(F)(F)F)c3)c2c1)c1c(F)cccc1Cl [Compound 11, 2-Chloro-6-fluoro-N-[3-hydroxymethyl-1-(3-trifluoromethylbenzene-sulfonyl)-1H-indazol-6-yl]benzamide] |  | > 4.82
O=C(Nc1ccc2cnn(S(=O)(=O)c3ccc(F)c(C(F)(F)F)c3)c2c1)c1c(Cl)cccc1Cl [Compound V-66] |  | > 4.82
O=C(Nc1ccc2cnn(S(=O)(=O)c3cccc(C(F)(F)F)c3)c2c1)c1c(F)cccc1Cl [Compound V-55] |  | > 4.82
O=C(Nc1ccc2cnn(S(=O)(=O)c3cccc(OC(F)(F)F)c3)c2c1)c1c(F)cccc1F [Compound V-63] |  | > 4.82
C[C@H]1CN(S(=O)(=O)c2ccc(F)cc2)c2cc(NC(=O)C(C)(C)c3ccc(Cl)cc3)ccc2O1 [VI-135] | > 4.82 | 
